Laboratory results reported in ChEMBL document CHEMBL5136992, “Fascinating Transformation of SAM-Competitive Protein Methyltransferase Inhibitors from Nucleoside Analogues to Non-Nucleoside Analogues” (J Med Chem, 2022).
Values after ≈ are worked out from the molar mass of the structure shown.

How the values were obtained:
[1] = cells; settings: Homo sapiens, MCF-10A
Description: Inhibition of methylation of H3K79 in human MCF-10A cells by fluorescence assay

[2] = molecular target: Protein arginine N-methyltransferase 1 (Homo sapiens, UniProt Q99873); experiment: Inhibition of PRMT1 (unknown origin)
Sequence of Protein arginine N-methyltransferase 1 (Q99873 whole entry): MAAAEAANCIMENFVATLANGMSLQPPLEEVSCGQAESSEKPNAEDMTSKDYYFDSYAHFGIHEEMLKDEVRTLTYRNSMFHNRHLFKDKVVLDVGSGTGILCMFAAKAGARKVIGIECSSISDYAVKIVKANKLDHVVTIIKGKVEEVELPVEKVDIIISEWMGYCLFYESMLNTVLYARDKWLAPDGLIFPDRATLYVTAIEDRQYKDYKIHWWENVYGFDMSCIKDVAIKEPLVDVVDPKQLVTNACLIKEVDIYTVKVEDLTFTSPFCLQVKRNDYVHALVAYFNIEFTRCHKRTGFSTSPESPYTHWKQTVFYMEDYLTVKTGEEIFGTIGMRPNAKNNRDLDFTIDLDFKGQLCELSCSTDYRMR

[3] = molecular target: T1, Histone-arginine methyltransferase CARM1 (Homo sapiens, UniProt Q86X55); experiment: Inhibition of PRMT4 (unknown origin)
T1 sequence (Q86X55 whole entry): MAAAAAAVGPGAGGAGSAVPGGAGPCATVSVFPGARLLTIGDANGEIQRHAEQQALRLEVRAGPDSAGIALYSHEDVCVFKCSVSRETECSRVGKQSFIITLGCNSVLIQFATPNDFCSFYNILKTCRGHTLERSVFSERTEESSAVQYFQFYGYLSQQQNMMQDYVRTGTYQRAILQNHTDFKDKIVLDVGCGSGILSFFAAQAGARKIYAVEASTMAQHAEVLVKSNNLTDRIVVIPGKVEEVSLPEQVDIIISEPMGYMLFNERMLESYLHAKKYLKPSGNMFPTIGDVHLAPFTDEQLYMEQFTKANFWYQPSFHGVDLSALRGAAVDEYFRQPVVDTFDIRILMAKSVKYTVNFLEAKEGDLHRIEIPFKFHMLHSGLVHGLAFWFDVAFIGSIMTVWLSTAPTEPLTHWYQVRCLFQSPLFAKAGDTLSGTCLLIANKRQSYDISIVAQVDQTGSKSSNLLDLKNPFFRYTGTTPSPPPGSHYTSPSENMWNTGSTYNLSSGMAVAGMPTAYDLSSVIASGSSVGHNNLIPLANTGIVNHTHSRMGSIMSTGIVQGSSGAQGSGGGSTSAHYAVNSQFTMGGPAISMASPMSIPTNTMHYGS

[4] = molecular target: Histone-lysine N-methyltransferase, H3 lysine-79 specific (Homo sapiens, UniProt Q8TEK3); experiment: Inhibition of DOT1L (unknown origin)
Sequence of Histone-lysine N-methyltransferase, H3 lysine-79 specific (Q8TEK3 whole entry): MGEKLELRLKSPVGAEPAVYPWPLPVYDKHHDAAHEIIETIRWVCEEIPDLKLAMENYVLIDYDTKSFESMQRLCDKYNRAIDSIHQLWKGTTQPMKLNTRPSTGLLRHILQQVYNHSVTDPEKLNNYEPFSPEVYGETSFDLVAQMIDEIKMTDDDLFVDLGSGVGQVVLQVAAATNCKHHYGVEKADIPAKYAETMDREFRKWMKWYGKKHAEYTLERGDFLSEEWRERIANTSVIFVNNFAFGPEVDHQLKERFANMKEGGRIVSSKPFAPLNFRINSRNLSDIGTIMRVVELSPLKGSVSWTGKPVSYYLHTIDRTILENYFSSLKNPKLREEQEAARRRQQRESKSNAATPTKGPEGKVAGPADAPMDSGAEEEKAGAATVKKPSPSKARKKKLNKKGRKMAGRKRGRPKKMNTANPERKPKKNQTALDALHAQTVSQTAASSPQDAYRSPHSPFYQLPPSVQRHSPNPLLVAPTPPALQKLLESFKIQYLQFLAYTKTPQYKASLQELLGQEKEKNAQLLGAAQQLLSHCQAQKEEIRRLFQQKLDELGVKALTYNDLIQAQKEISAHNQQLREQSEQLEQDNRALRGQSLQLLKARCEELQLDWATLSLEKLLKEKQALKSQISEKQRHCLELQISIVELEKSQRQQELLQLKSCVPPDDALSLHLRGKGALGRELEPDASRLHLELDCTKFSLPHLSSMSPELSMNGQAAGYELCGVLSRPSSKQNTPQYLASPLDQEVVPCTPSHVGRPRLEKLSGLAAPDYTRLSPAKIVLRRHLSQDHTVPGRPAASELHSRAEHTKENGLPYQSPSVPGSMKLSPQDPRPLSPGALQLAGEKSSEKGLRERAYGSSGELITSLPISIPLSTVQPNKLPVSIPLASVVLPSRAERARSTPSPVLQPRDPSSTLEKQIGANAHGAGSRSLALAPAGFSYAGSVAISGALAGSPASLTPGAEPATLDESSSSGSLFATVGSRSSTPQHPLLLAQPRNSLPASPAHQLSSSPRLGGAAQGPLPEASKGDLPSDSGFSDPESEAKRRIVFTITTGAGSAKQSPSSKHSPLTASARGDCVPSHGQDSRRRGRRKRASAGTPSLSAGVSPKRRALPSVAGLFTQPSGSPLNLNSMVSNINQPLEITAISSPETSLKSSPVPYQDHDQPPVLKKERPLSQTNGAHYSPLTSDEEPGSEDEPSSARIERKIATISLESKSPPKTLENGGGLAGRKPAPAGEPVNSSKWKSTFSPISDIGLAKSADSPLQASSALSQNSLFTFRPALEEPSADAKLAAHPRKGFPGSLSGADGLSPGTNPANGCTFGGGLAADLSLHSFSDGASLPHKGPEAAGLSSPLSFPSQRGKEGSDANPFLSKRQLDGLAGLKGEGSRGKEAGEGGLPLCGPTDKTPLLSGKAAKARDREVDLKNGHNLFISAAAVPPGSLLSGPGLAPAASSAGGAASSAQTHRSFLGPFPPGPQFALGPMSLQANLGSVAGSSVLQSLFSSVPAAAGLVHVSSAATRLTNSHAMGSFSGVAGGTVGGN

[5] = molecular target: Protein arginine N-methyltransferase 5 (Homo sapiens, UniProt O14744); experiment: Inhibition of PRMT5 (unknown origin)
Sequence of Protein arginine N-methyltransferase 5 (O14744 whole entry): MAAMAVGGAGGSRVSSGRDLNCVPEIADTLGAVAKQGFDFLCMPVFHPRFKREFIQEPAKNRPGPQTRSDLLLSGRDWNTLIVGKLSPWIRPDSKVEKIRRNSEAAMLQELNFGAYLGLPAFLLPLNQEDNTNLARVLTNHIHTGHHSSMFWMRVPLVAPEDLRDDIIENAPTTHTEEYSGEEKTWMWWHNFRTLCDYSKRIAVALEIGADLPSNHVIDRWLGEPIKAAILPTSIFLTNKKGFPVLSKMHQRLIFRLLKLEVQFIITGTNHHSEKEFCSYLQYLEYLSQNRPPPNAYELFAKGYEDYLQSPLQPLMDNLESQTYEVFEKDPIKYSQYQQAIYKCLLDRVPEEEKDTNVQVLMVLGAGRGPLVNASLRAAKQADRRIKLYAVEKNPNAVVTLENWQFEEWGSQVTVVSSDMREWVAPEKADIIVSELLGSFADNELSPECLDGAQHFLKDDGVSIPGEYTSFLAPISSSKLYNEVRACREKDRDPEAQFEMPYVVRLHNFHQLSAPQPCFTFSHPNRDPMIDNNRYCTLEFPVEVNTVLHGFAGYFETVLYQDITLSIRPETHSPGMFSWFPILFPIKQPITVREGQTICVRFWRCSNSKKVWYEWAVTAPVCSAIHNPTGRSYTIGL

[6] = molecular target: T2, Histone-lysine N-methyltransferase SETD7 (Homo sapiens, UniProt Q8WTS6); experiment: Inhibition of SET7 (unknown origin)
T2 sequence (Q8WTS6 whole entry): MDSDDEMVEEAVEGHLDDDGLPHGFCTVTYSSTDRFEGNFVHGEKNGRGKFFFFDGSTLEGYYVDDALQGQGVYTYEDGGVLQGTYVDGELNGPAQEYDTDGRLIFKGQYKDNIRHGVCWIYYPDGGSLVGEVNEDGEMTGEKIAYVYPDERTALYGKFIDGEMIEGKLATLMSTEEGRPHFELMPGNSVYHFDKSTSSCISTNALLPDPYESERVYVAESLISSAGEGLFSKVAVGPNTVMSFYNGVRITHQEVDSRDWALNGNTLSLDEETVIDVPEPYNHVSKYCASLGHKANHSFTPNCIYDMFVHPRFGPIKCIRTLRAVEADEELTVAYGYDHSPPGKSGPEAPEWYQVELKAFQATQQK

[7] = molecular target: T3, Histone-lysine N-methyltransferase EZH2 (Homo sapiens, UniProt Q15910); experiment: Inhibition of EZH2 (unknown origin)
Target sequence in this assay (Q15910 whole entry): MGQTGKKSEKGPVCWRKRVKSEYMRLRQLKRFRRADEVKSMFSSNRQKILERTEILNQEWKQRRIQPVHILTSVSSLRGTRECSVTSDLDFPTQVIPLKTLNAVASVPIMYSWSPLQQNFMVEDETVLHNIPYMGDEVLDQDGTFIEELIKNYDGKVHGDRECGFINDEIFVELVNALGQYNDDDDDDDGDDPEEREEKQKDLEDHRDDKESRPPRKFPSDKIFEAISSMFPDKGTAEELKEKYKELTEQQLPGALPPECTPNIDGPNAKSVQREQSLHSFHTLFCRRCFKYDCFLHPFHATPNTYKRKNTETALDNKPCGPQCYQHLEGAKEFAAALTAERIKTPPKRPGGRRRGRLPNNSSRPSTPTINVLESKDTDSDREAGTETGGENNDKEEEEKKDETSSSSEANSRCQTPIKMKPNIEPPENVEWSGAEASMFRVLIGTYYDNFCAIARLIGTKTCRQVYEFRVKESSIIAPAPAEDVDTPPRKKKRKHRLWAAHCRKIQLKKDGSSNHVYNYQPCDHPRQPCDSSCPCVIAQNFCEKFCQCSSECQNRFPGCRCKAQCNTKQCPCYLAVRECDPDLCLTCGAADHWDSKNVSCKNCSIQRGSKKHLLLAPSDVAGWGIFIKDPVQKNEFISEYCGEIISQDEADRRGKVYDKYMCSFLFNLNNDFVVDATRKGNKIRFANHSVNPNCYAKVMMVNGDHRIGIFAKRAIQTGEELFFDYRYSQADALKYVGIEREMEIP

[8] = molecular target: T3, Histone-lysine N-methyltransferase EZH2; experiment: Inhibition of EZH2 (unknown origin) assessed as residence time
Target sequence in this assay (Q15910 whole entry, looked up): as the sequence (Q15910 whole entry) above

[9] = Aqueous solubility of the compound; format: physicochemical; settings: buffer

## CC(C)N(CCCNC(=O)Nc1ccc(C(C)(C)C)cc1)C[C@@H]1O[C@H](n2cc(Br)c3c(N)ncnc32)[C@@H](O)[C@H]1O
[1]
  IC50: 8.8 nM

## N=C(N)NCCCN(CCCN)C[C@@H]1O[C@H](n2cnc3c(N)ncnc32)[C@@H](O)[C@H]1O
[2]
  IC50: 7200 nM
[3]
  IC50: 2300 nM

## NC(=O)CNC(=O)Nc1ccc2ccn(-c3ccccc3Cl)c2c1
[4]
  IC50: 9000 nM

## Nc1ncnc2c1ccn2[C@H]1O[C@@H]([C@H](O)c2ccccc2)[C@H](O)[C@@H]1O
[5]
  IC50: 9.5 nM

## CCCCCCNCCN(CC[C@H](N)C(=O)O)C[C@@H]1O[C@H](n2cnc3c(N)ncnc32)[C@@H](O)[C@H]1O
[6]
  IC50: > 10000 nM

## CSc1cc(C)[nH]c(=O)c1CNC(=O)c1c(C)n([C@@H](C)[C@H]2CC[C@H](N3CC(OC4CC4)C3)CC2)c2ccccc12
[7]
  IC50: 0.057 nM
[8]
  TIME: 57 h

## COc1cccc(C(=O)NCc2c(C)cc(C)[nH]c2=O)c1Cl
[7]
  IC50: 7.2 nM

## Cc1cc(C)c(CN2CCc3c(Cl)cc(-c4c(C)noc4C)c(Cl)c3C2=O)c(=O)[nH]1
[7]
  IC50: < 5 nM
[9]
  solubility: 2 µg/mL (≈ 4.48 µM)

## Nc1cccc(CCC[C@@H]2C[C@H](n3ccc4c(N)ncnc43)[C@@H](O)[C@H]2O)n1
[5]
  IC50: 0.4 nM

## CNc1ccnc(Nc2ccc3cc(C)n(-c4ccccc4Oc4cnc5c(c4)ncn5C)c3c2)n1
[1]
  IC50: 16 nM

## CCCc1cc(C)[nH]c(=O)c1CNC(=O)c1cc(-c2ccc(N3CCN(C(C)C)CC3)nc2)cc2c1cnn2C(C)C
[7]
  IC50: < 10 nM

## CC(C)(C)c1ccc(CC(=O)c2ncn(CC(=O)NCCn3ccc4c(N)ncnc43)n2)cc1
[4]
  IC50: 1000 nM

## CCNC(=O)NCCCSC[C@@H]1O[C@H](n2cnc3c(N)ncnc32)[C@@H](O)[C@H]1O
[5]
  IC50: 6000 nM

## CNc1ccnc(Nc2ccc3sc(Cl)c(-c4cc(-c5c(C)ncn(C)c5=O)cnc4Cl)c3c2)n1
[4]
  IC50: 1400 nM
[1]
  IC50: 23 nM

## CN(CCCNC(=O)CNC(=O)Nc1ccc2sc(Cl)c(-c3cccnc3)c2c1)[C@@H]1CCCC(c2ncnc3[nH]ccc23)C1 (some centres undefined)
[4]
  IC50: < 100 nM

## Cc1cc(C)c(CNC(=O)c2c(C)n([C@H](C)C3CCN(CC(F)(F)F)CC3)c3ccccc23)c(=O)[nH]1
[7]
  IC50: 22 nM

## Nc1ncnc2c1ncn2[C@H]1O[C@@H](CSCC[C@H](N)C(=O)NCc2cc(-c3ccccc3)[nH]n2)[C@H](O)[C@@H]1O
[7]
  IC50: 270 nM

## NCCCN(CCCNc1ccccn1)C[C@@H]1O[C@H](n2cnc3c(N)ncnc32)[C@@H](O)[C@H]1O
[3]
  IC50: 90 nM

## Nc1ncnc2ccc(N(CC#CC(O)c3nccn3CCO)c3c(Cl)cccc3Cl)cc12 (centres undefined)
[4]
  IC50: 14000 nM

## CCC(CC)n1ncc2c(C(=O)NCc3c(C)cc(C)[nH]c3=O)cc(C3CC3)nc21
[7]
  IC50: 149 nM
